SMILES strings stand for the structures.

As usually defined, the IC50 is the concentration needed to halve the response being measured. Low readings indicate higher potency, high ones lower potency.

Assay [1] addresses T1, Nuclear factor erythroid 2-related factor 2 (Homo sapiens) (UniProt Q16236).
T1 sequence (whole entry): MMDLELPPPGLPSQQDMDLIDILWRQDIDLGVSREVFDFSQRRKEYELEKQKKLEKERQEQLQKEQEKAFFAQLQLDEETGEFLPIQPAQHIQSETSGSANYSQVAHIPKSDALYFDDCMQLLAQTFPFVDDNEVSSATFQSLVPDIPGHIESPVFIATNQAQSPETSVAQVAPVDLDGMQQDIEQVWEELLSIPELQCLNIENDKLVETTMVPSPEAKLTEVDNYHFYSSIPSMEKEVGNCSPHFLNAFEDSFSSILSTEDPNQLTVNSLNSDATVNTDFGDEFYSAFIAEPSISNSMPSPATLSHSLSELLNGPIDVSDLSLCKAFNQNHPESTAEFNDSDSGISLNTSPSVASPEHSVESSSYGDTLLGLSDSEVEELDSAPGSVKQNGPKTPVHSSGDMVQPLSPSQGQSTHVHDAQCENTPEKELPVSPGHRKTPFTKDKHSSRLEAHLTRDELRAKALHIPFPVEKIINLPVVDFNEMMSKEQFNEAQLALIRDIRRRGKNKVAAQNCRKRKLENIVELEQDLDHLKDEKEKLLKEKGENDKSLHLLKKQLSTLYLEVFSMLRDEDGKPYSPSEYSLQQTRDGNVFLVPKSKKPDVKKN
As to the kind of experiment: Activation of Nrf2 (unknown origin) stably transfected in human HepG2-ARE-C8 cells assessed as increase in ARE-driven luciferase activity at 0.01 uM by luciferase reporter gene assay relative to control. In kind it is cell-based.

For assay [2], the target named is T1, Nuclear factor erythroid 2-related factor 2 (Homo sapiens). The assay can be described thus: Activation of Nrf2 (unknown origin) stably transfected in human HepG2-ARE-C8 cells assessed as increase in ARE-driven luciferase activity at 5 uM by luciferase reporter gene assay relative to control. Format: cell-based. On the technique in general: A reporter such as luciferase makes a cellular process visible.

The target is the same in assay [3]. As to the kind of experiment: Activation of Nrf2 (unknown origin) stably transfected in human HepG2-ARE-C8 cells assessed as increase in ARE-driven luciferase activity at 20 uM by luciferase reporter gene assay relative to control. In kind it is cell-based.
Assay [4] shares this target. As to the kind of experiment: Activation of Nrf2 (unknown origin) stably transfected in human HepG2-ARE-C8 cells assessed as increase in ARE-driven luciferase activity at 10 uM by luciferase reporter gene assay relative to control. In kind it is cell-based.
The target is the same in assay [5]. The assay can be described thus: Activation of Nrf2 (unknown origin) stably transfected in human HepG2-ARE-C8 cells assessed as increase in ARE-driven luciferase activity at 0.1 uM by luciferase reporter gene assay relative to control. Format: cell-based.
Assay [6] has the same target. The assay can be described thus: Activation of Nrf2 (unknown origin) stably transfected in human HepG2-ARE-C8 cells assessed as increase in ARE-driven luciferase activity at 1 uM by luciferase reporter gene assay relative to control. In kind it is cell-based.
The target in assay [7] is Kelch-like ECH-associated protein 1 (Homo sapiens, UniProt Q14145). The assay can be described thus: Displacement of FITC-LDEETGEFL-NH2 from human KEAP1 Kelch domain (322 to 609 residues) measured after 30 mins by fluorescence polarization assay. For orientation: Fluorescence polarisation rises when a labelled molecule tumbles more slowly, as on binding a larger partner.
Kelch-like ECH-associated protein 1, sequence (Q14145 whole entry, the tested form may be a part): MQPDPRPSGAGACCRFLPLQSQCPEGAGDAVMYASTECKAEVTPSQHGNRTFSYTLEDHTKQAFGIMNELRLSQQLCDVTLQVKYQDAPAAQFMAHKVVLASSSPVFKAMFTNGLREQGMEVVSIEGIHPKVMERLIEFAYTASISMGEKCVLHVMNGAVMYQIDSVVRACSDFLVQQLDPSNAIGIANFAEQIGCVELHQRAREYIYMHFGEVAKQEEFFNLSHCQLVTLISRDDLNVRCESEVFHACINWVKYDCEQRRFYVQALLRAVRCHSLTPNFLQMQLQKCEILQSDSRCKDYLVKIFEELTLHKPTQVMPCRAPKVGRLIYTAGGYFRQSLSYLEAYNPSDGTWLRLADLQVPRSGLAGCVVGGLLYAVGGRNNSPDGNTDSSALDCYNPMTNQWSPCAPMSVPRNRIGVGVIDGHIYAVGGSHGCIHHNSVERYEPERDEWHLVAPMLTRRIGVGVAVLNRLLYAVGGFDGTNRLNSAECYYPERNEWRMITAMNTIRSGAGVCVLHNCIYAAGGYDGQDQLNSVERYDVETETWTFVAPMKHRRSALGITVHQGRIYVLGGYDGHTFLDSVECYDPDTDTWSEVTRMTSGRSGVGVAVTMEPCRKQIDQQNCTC

With `CC(C)(C)c1cc(O)ccc1O`, the fold change (FC) in assay [1] amounted to 1.04; in assay [2], 2.27; in assay [3], 4.87; in assay [4], 3.38; in assay [5] it was 1.02; in assay [6], 1.46. The compound `COc1ccc(S(=O)(=O)Nc2ccc(N[C@@H](CO)C(=O)O)c3ccccc23)cc1` gave an IC50 in assay [7] greater than 50 µM. Regarding `COc1ccc(S(=O)(=O)Nc2ccc(N[C@H](C(=O)O)C(C)(C)C)c3ccccc23)cc1`, in assay [7], the IC50 is greater than 50 µM. For `COc1ccc(S(=O)(=O)Nc2ccc(N[C@@H](Cc3ccc(O)cc3)C(=O)O)c3ccccc23)cc1`, the half-inhibitory concentration (IC50) in assay [7] is greater than 50 µM. The same measure, in the same setting: to `COc1ccc(S(=O)(=O)Nc2ccc(N[C@@H](C)C(=O)O)c3ccccc23)cc1` belongs greater than 50 µM. Still for that read-out and setting: the same measure for `COc1ccc(S(=O)(=O)Nc2ccc(N[C@H](C(=O)O)C(C)C)c3ccccc23)cc1`: greater than 50 µM; for `COc1ccc(S(=O)(=O)Nc2ccc(N[C@@H](CC(C)C)C(=O)O)c3ccccc23)cc1`: greater than 50 µM. `COc1ccc(S(=O)(=O)Nc2ccc(N[C@@H](Cc3c[nH]c4ccccc34)C(=O)O)c3ccccc23)cc1` displayed an IC50 in assay [7] greater than 50 µM. The compound `COc1ccc(S(=O)(=O)N(CC(=O)O)c2ccc(N[C@@H](CO)C(=O)O)c3ccccc23)cc1` yielded an IC50 in assay [7] greater than 50 µM.

`COc1ccc(S(=O)(=O)Nc2ccc(N[C@@H](CCS(C)(=O)=O)C(=O)O)c3ccccc23)cc1`: the IC50 in assay [7] was greater than 50 µM.

The values are drawn from ChEMBL document CHEMBL4364299, “Discovery of a Potent Kelch-Like ECH-Associated Protein 1-Nuclear Factor Erythroid 2-Related Factor 2 (Keap1-Nrf2) Protein-Protein Interaction Inhibitor with Natural Proline Structure as a Cytoprotective Agent against Acetaminophen-Induced Hepatotoxicity” (J Med Chem, 2019).
